Test results from patent US5061730A, “Carboxylic acid derivatives” (Fujisawa Pharmaceutical Co., Ltd., priority 1987, dated 1991).
Each block holds one molecule with its values, some of them ahead of it.

What was measured:
[1] = target: T1, DHP-I (renal dipeptidase) (Sus scrofa, UniProt P22412); test: Inhibition of DHP-I activity, porcine DHP-I; format: biochemical; settings: glycyldehydrophenylalanine substrate
T1 construct: Fresh kidney cortex was cut into pieces and homogenized in a Waring blender; from tissue; host or cells: kidney cortex (pig), n-butanol extraction, ammonium sulfate fraction 50-75%
T1 sequence (P22412 17-409): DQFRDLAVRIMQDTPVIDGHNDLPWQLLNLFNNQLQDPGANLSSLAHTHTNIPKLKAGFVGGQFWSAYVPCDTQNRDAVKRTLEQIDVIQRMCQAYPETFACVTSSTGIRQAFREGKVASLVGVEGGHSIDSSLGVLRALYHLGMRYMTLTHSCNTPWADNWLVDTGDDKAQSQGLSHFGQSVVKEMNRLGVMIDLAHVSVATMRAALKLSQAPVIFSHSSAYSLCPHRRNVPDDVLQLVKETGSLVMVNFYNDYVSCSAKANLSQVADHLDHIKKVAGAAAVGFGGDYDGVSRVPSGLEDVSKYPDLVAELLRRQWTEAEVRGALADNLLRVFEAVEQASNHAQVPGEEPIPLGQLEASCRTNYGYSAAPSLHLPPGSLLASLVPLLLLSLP
Method: (§1) DHP-I (renal dipeptidase) were partially purified from several species of animals by B. J. Cambell (Methods in Enzymology, (1970) Vol. 19,722). Fresh kidney cortex was cut into pieces and homogenized in a Waring blender with an equal volume of 1/15M phosphate buffer (pH 8.0). The homogenate was filtrated on gauze to remove cellular debris. n-Butanol chilled to 0° C., was added to a concentration of 20% by volume with rapid stirring. The suspension was stirred with a magnetic stirrer for overnight at 4° C. to dissolve DHP-I. The resultant emulsion was then dialyzed against several changes of distilled water. To the dialyzate was added solid ammonium sulfate to 50% saturation at 0° C. The precipitate formed was collected by centrifugation at 4500 g for 1 hour and discarded. Solid ammonium sulfate was then added to the supernatant to 75% saturation, the suspension was centrifuged at 10,000 g for 1 hour. The sediment was dissolved in a small volume of distilled water and dialyzed against distilled water. […]
(§2) Activity of DHP-I was measured by mean of using the unsaturated dipeptide, glycyldehydrophenylalanine as substrate. […] Inhibitory effect of the test compound on DHP-I activity was measured. Inhibition percent, I(%), was calculated as followed, I(%)=(E-T)/Ex100, where E was DHP-I activity without test compound (Control), T was DHP-I activity with test compound.

[2] = target: T2, DHP-I (renal dipeptidase) (Oryctolagus cuniculus, UniProt P31429); test: Inhibition of DHP-I activity, rabbit DHP-I; format: biochemical; settings: glycyldehydrophenylalanine substrate
T2 construct: Fresh kidney cortex was cut into pieces and homogenized in a Waring blender; from tissue; host or cells: kidney cortex (rabbit), n-butanol extraction, ammonium sulfate fraction 50-75%
T2 sequence (P31429 17-410): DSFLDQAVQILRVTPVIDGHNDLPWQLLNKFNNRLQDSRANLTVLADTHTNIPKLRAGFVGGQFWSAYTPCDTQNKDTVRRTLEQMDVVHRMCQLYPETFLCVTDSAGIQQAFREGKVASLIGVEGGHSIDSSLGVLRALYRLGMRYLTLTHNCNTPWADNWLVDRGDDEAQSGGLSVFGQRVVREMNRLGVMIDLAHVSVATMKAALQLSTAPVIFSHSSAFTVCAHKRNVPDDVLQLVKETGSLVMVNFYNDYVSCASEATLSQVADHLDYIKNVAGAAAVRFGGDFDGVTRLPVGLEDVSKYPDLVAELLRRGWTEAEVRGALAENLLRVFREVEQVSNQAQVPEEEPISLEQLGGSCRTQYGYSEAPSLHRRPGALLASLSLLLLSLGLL
Method: as §1, §2

[3] = tested on: carboxypeptidaseA (CPaseA); test: Effect on other metalloenzymes: carboxypeptidase A; format: biochemical; settings: at 50,000 ng/ml; bovine pancreas enzyme
Method: (§3) DHP-I is a metalloenzyme with the zinc atom. To clarify the specific inhibitors activity of the test compound on DHP-I, the effect of the test compound on other metalloenzymes containing zinc, carboxypeptidaseA (CPaseA), leucineaminopeptidase (LAP), was determined.
Activity of CPaseA from bovine pancreas (Type II-DEF, made by Sigma Chemical Co.) was measured by mean of using carbobenzoxyglycyl-L-phenylalanine (made by Peptide Institute, Inc., Osaka, Japan) as substrate. Enzymatic hydrolysis was followed by observing the fall in optical density at 224 nm.

[4] = tested on: leucineaminopeptidase (LAP); test: Effect on other metalloenzymes: leucineaminopeptidase; format: biochemical; settings: at 50,000 ng/ml; porcine kidney microsomes enzyme
Method: as §3
Activity of LAP from porcine kidney microsomes (Type IV-S, made by Sigma Chemical Co.) was measured by . mean of using L-leucine-p-nitroanilide (made by Peptide Institute, Inc.) as substrate. Enzymatic hydrolysis was followed by observing the increase in optical density at 405 nm.

Escherichia coli = test: Antimicrobial activity, paper disk diffusion method; format: cell-based; settings: at 1 mg/ml
Method: (§4) Antimicrobial activity of the test compounds No.1 and No.2. was measured by paper disk diffusion method in a conventional manner.

Staphylococcus aureus = test: as above; format: cell-based; settings: at 1 mg/ml
Method: as §4

ICR mice = test: Acute toxicity, single intravenous injection; format: in vivo; settings: 1 g/kg single intravenous, female, 4 weeks old
Method: The acute toxicity of the test compound No.1 was determined to ICR mice (female, 4 weeks old) by a single intravenous injection.

[5] = Urinary recovery of carbapenem antibiotics combined with DHP-I inhibitor; format: in vivo, ICR mice; settings: for dose excreted: mouse, urine, iv, 1 mg/kg, antibiotic 1 mg/kg i.v., ICR mice
Method: The effect of the test compound No.1 on urinary recovery of carbapenem antibiotics simultaneously administrated was determined. Urinary recovery percent was calculated by measuring a quantity of antibiotics excreted in urine using bioassay, when antibiotics and DHP-I inhibitor were combined and intravenously injected to ICR mice (female, 4 weeks old, 4 animals per group).

Staphylococcus aureus 47 = test: Protective effect of carbapenem antibiotic combined with DHP-I inhibitor on mice infection; format: in vivo; settings: Test compound No. 4 alone 10 mg/kg s.c., 1 hour after challenge; ICR mice
Method: The combined effect of DHP-I inhibitor of this invention with the carbapenem antibiotic, on mice infection was determined. ICR mice (female, 4 weeks old, 5 animals per group) were intraperitoneally injected with 4×10^8 Staphylococcus aureus 47 suspended in 5% mucin. Combined therapies were administrated subcutaneously 1 hour after challenge.

Solubility = format: physicochemical; settings: disodium salt
[6] = literature; cited from earlier work
[7] = with Test compound No. 1, 0.5 mg/kg
[8] = with Test compound No. 1, 1 mg/kg
[9] = with Test compound No. 1, 2 mg/kg

Structure (SMILES): CC(CC(=O)O)C(O)(C(=O)O)C(=O)NO (centres unmarked) [Test compound No. 1]
IC50 [1]: 0.00497 µM | IC50 [2]: 0.0497 µM | Inhibitory effect on CPaseA [3]: no inhibitory effect | Inhibitory effect on LAP [4]: no inhibitory effect | Antimicrobial activity (Escherichia coli): no antimicrobial activity | Antimicrobial activity (Staphylococcus aureus): no antimicrobial activity | Acute toxicity, toxic symptom (ICR mice): No toxic symptom was observed | Effect on urinary recovery of the carbapenem antibiotics ([5]; effect of inhibitor on test compound No. 3 and 4 (1 mg/kg), in words): significantly increased urinary recovery

Structure (SMILES): O=C(O)CCC(O)(C(=O)O)C(=O)NO (centres unmarked) [Test compound No. 2]
IC50 [1]: 0.531 µM | IC50 [2]: 2.41 µM | Inhibitory effect on CPaseA [3]: no inhibitory effect | Inhibitory effect on LAP [4]: no inhibitory effect | Antimicrobial activity (Escherichia coli): no antimicrobial activity | Antimicrobial activity (Staphylococcus aureus): no antimicrobial activity

dose excreted ([5]; inhibitor: None): 44.1 ± 0.6% | dose excreted [5, 7]: 66.1 ± 3% | dose excreted [5, 8]: 63.8 ± 7.3% | dose excreted [5, 9]: 65.4 ± 9.5%
Structure (SMILES): C[C@@H](O)[C@H]1C(=O)N2C(C(=O)O)=C(SCCNC=N)CC12 (some centres unmarked) [Test compound No. 3]

dose excreted ([5]; inhibitor: None): 29.3 ± 2.8% | dose excreted [5, 7]: 51.4 ± 3.9% | dose excreted [5, 8]: 57.8 ± 1.3% | dose excreted [5, 9]: 71.9 ± 9.5%
Structure (SMILES): C[C@@H](O)[C@H]1C(=O)N2C(C(=O)O)=C(S[C@@H]3CN[C@H](COC(N)=O)C3)CC12 (some centres unmarked) [Test compound No. 4]
Survived/Treated (Test mice) (Staphylococcus aureus 47): 0/5

Structure (SMILES): CC(CC(=O)O)C(O)(C(=O)O)C(=O)NO (centres unmarked) [WS-1358A, 2-hydroxy-2-(hydroxycarbamoyl)-3-methylglutaric acid]
Solubility in acetone (Solubility): Insoluble | Solubility in chloroform (Solubility): Insoluble | Solubility in ethanol (Solubility): Sparingly Soluble | Solubility in ethyl acetate (Solubility): Insoluble | Solubility in hexane (Solubility): Insoluble | Solubility in methanol (Solubility): Sparingly Soluble | Solubility in water (Solubility): Soluble

Structure (SMILES): O=C(O)CCC(O)(C(=O)O)C(=O)NO (centres unmarked) [WS-1358B]
Solubility in acetone (Solubility): Insoluble | Solubility in chloroform (Solubility): Insoluble | Solubility in ethanol (Solubility): Sparingly Soluble | Solubility in ethyl acetate (Solubility): Insoluble | Solubility in hexane (Solubility): Insoluble | Solubility in methanol (Solubility): Sparingly Soluble | Solubility in water (Solubility): Soluble

Structure (SMILES): CC1(C)C[C@@H]1C(=O)N/C(=C\CCCCSC[C@H](N)C(=O)O)C(=O)O [cilastatin]
Urinary recoveries of the carbapenem antibiotics (e.g. imipenem) [6]: improving urinary recoveries
